# Measurements reported in PMC2935846 (Journal of the American Chemical Society, 2009).
# Experiments:
# [1] = Leakage of terbium from lipid vesicles; conditions: peptide:lipid 1:100, method as in earlier work
# [2] = tested on: E. coli cells; test: SYTOX Green uptake; conditions: 5 μM peptide; for SYTOX Green influx into E. coli (in words): E. coli cells in PBS
# [3] = tested on: E. coli cytoplasmic membrane; test: Membrane depolarization, diSC3; assay type: cell-based, Escherichia coli; conditions: E. coli 2 × 10^7 cells/mL, 50 nM diSC3(5)
# [4] = tested on: C. neoformans cells; test: SYTOX Green uptake; assay type: cell-based, Cryptococcus neoformans; conditions: 5 μM peptide, 2 × 10^7 cells/mL in PBS, 1 μM SYTOX Green
smiles,measurement,setting,value
CC[C@H](C)[C@H](N)C(=O)N[C@@H](CC(C)C)C(=O)N1CCC[C@H]1C(=O)N[C@@H](Cc1c[nH]c2ccccc12)C(=O)N[C@@H](CCCCN)C(=O)N[C@@H](Cc1c[nH]c2ccccc12)C(=O)N1CCC[C@H]1C(=O)N[C@@H](Cc1c[nH]c2ccccc12)C(=O)N[C@@H](Cc1c[nH]c2ccccc12)C(=O)N1CCC[C@H]1C(=O)N[C@@H](Cc1c[nH]c2ccccc12)C(=O)N[C@@H](CCCNC(=N)N)C(=O)N[C@@H](CCCNC(=N)N)C(N)=O [Indolicidin],"% of Tb leakage, P:L 1:100",[1],8%
same,SYTOX Green influx into E. coli (in words),[2],only a very small amount of dye influx
CC[C@H](C)[C@H](NC(=O)CN)C(=O)NCC(=O)N[C@@H](C)C(=O)N[C@H](C(=O)N[C@@H](CC(C)C)C(=O)N[C@@H](CCCCN)C(=O)N[C@H](C(=O)N[C@@H](CC(C)C)C(=O)N[C@H](C(=O)N[C@H](C(=O)NCC(=O)N[C@@H](CC(C)C)C(=O)N1CCC[C@H]1C(=O)N[C@@H](C)C(=O)N[C@@H](CC(C)C)C(=O)N[C@H](C(=O)N[C@@H](CO)C(=O)N[C@@H](Cc1c[nH]c2ccccc12)C(=O)N[C@H](C(=O)N[C@@H](CCCCN)C(=O)N[C@@H](CCCNC(=N)N)C(=O)N[C@@H](CCCCN)C(=O)N[C@@H](CCCNC(=N)N)C(=O)N[C@@H](CCC(N)=O)C(=O)N[C@@H](CCC(N)=O)C(N)=O)[C@@H](C)CC)[C@@H](C)CC)[C@@H](C)O)[C@@H](C)O)C(C)C)C(C)C [Melittin],time of membrane potential dissipation,"[3]; 5 μM peptide, 25°C",less than 30 seconds
same,"permeabilization of fungal cells, SYTOX Green (in words)",[4],completely permeabilizes the fungal cells in just a few minutes
same,"% of Tb leakage, P:L 1:100",[1],100%
same,time to 50% of the maximum SYTOX Green uptake,[2]; E. coli in PBS,about 15 minutes
same,time to complete SYTOX Green leakage,[2]; E. coli in PBS,≤ 25 min
CC1(C)S[C@@H]2[C@H](NC(=O)[C@H](N)c3ccccc3)C(=O)N2[C@H]1C(=O)O [ampicillin],SYTOX Green influx into E. coli (in words),[2],no effect
CC(C)[C@@H]1NC(=O)[C@H](C)OC(=O)[C@@H](C(C)C)NC(=O)[C@@H](C(C)C)OC(=O)[C@H](C(C)C)NC(=O)[C@H](C)OC(=O)[C@@H](C(C)C)NC(=O)[C@@H](C(C)C)OC(=O)[C@H](C(C)C)NC(=O)[C@H](C)OC(=O)[C@@H](C(C)C)NC(=O)[C@@H](C(C)C)OC1=O [valinomycin],collapse of the membrane potential (in words),[3]; 40 μM,Complete collapse of the membrane potential
